Tests used:
[1] = Displacement of [3H]RX821002 from alpha2 adrenergic receptor in human brain prefrontal cortex tissue by liquid scintillation spectrometry; assay type: tissue-based
Rattus norvegicus [2] = assay: Increase in extracellular noradrenaline levels in Sprague-Dawley rat brain prefrontal cortex at 1 to 100 uM, locally administered by microdialysis by relative to control
[3] = Agonist activity at alpha2 adrenergic receptor in human brain prefrontal cortex tissue by [35S]GTPgamma S binding assay; assay type: functional, tissue-based
[4] = Agonist activity at alpha2 adrenergic receptor in human brain prefrontal cortex tissue by [35S]GTPgamma S binding assay relative to UK-14304; assay type: functional
Rattus norvegicus [5] = assay: Increase in extracellular noradrenaline levels in Sprague-Dawley rat brain prefrontal cortex at 10 mg/kg, ip systematically administered by microdialysis by relative to control; assay type: functional; details: route intraperitoneal

Row | Compound | pKi [1] | further results
1 | COC1(C2=NCCN2)COc2ccccc2O1 (stereo not given) | 9.04 | Emax (Rattus norvegicus [2]): 287%
2 | CCc1ccc(NC2=NCCN2)cc1.Cl | 6.68 | 
3 | Cl.c1cc2c(cc1NC1=NCCN1)CCCC2 | 7.33 | EC50 [3]: 1.1 µM; Emax [4]: 100%
4 | Cl.c1ccc(NC2=NCCN2)cc1 | 6.48 | 
5 | Cc1ccc(NC2=NCCN2)cc1C.Cl | 7.68 | EC50 [3]: 62.9 µM; Emax [4]: 89%
6 | Cl.c1cc2c(cc1NC1=NCCN1)CCC2 | 8.26 | EC50 [3]: 4.4 µM; Emax [4]: 98%
7 | Cc1ccc(NC2=NCCN2)cc1.Cl | 7.82 | EC50 [3]: 15.2 µM; Emax [4]: 97%
8 | Cl.N=C(N)Nc1ccc2c(c1)CCCC2 | 7.11 | Activity (Rattus norvegicus [5]): 373%; Emax (Rattus norvegicus [2]): 326%
9 | COc1ccc(NC2=NCCN2)cc1 | 7.77 | 
10 | c1cc2c(cc1NC1=NCCN1)OCO2 | 7.33 | 
11 | c1ccc(Oc2ccc(NC3=NCCN3)cc2)cc1 | 6.58 | 
12 | N=C(N)Nc1ccc2c(c1)Cc1ccc(NC(=N)N)cc1C2 | 7.96 | 
13 | Nc1ccc(NC2=NCCN2)cc1 | 6.92 | 
14 | c1cc2c(cc1NC1=NCCN1)Cc1ccc(NC3=NCCN3)cc1C2 | 7.58 | 
15 | c1cc2c(cc1NC1=NCCN1)Cc1cc(NC3=NCCN3)ccc1-2 | 6.32 | 
16 | N=C(N)Nc1ccc2c(c1)Cc1cc(NC(=N)N)ccc1-2 | 6.12 | 
17 | N=C(N)Nc1ccc(CCc2ccc(NC(=N)N)cc2)cc1 | 5.88 | 
18 | c1ccc(Nc2ccc(NC3=NCCN3)cc2)cc1 | 6.56 | 
19 | c1cc2c(cc1NC1=NCCN1)OCCO2 | 7.85 | 
20 | c1cc(NC2=NCCN2)ccc1CCc1ccc(NC2=NCCN2)cc1 | 7.02 | Activity (Rattus norvegicus [5]): 156%; Emax (Rattus norvegicus [2]): 255%
21 | c1ccc(Sc2ccc(NC3=NCCN3)cc2)cc1 | 6.62 | 
22 | Cl.c1ccc(Cc2ccc(NC3=NCCN3)cc2)cc1 | 6.85 | 
23 | CSc1ccc(NC2=NCCN2)cc1 | 7.07 | 
24 | c1ccc2c(c1)OCC(C1=NCCN1)O2 (stereo not given) [IDAZOXAN] |  | Emax (Rattus norvegicus [2]): 235%

Second part, led by results:

Row | pKi [1] | Compound | further results
25 | 6.19 | Cl.N=C(N)Nc1ccccc1 | 
26 | 6.53 | Cc1ccc(NC(=N)N)cc1.Cl | 
27 | 6.51 | Cl.N=C(N)Nc1ccc2c(c1)CCC2 | 
28 | 5.55 | CCc1ccc(NC(=N)N)cc1.Cl | 
29 | 6.38 | Cl.N=C(N)Nc1ccc(Cc2ccccc2)cc1 | 
30 | 8.21 | N=C(N)Nc1ccc2c(c1)OCCO2 | 
31 | 6.05 | N=C(N)Nc1ccc(Oc2ccccc2)cc1 | 
32 | 6.4 | CSc1ccc(NC(=N)N)cc1 | 
33 | 5.58 | N=C(N)Nc1ccc(N)cc1 | 
34 | 6.83 | N=C(N)Nc1ccc(Nc2ccccc2)cc1 | 
35 | 6.39 | COc1ccc(NC(=N)N)cc1 | 
36 | 6.4 | N=C(N)Nc1ccc2c(c1)OCO2 | 
37 | 6.3 | N=C(N)Nc1ccc(Sc2ccccc2)cc1 | 
